Results on 21 molecules are retold here after patent publication US9040545B2, “Heterocyclyl pyrazolopyrimidine analogues as selective JAK inhibitors” (Cellzome Limited, priority 2010, dated 2015).

The assay deals with T1, Aurora B (Homo sapiens, UniProt Q96GD4).
T1 construct: cell lysates from Jurkat cells (ATCC TIB-152) used; endogenous in cells; host or cells: Jurkat cells (ATCC TIB-152), treated with pervanadate
Kind of assay: Kinobeads assay, Aurora B. The format is binding. Conditions: for IC50: lysate of pervanadate-treated Jurkat cells, read-out: Inhibition values (IC50) Aur B. On the procedure: The compounds of the present invention as described in the previous examples were tested in a Kinobeads™ assay as described for ZAP-70 (WO-A 2007/137867). Briefly, test compounds (at various concentrations) and the affinity matrix with the immobilized aminopyrido-pyrimidine ligand 24 were added to cell lysate aliquots and allowed to bind to the proteins in the lysate sample. After the incubation time the beads with captured proteins were separated from the lysate. Bound proteins were then eluted and the presence of JAK2 and JAK3 was detected and quantified using specific antibodies in a dot blot procedure and the Odyssey infrared detection system. Dose response curves for individual kinases were generated and IC50 values calculated. Kinobeads™ assays for ZAP-70 (WO-A 2007/137867) and for kinase selectivity profiling (WO-A 2006/134056) have been previously described.
The affinity matrix was washed two times with 15 mL of 1×DP buffer containing 0.2% NP40 (IGEPAL® CA-630, Sigma, #I3021) and then resuspended in 1×DP buffer containing 0.2% NP40 (3% beads slurry).
5×DP buffer 250 mM Tris-HCl pH 7.4, 25% Glycerol, 7.5 mM MgCl2, 750 mM NaCl, 5 mM Na3VO4; filter the 5×DP buffer through a 0.22 μm filter and store in aliquots at −80° C. The 5×DP buffer is diluted with H2O to 1×DP buffer containing 1 mM DTT and 25 mM NaF.
Stock solutions of test compounds were prepared in DMSO. In a 96 well plate 30 μL solution of diluted test compounds at 5 mM in DMSO were prepared. Starting with this solution a 1:3 dilution series (9 steps) was prepared. For control experiments (no test compound) a buffer containing 2% DMSO was used.
Cell lysate (approximately 50 mg protein per plate) was thawed in a water bath at room temperature and then stored on ice. To the thawed cell lysate 1×DP 0.8% NP40 buffer containing protease inhibitors (1 tablet for 25 mL buffer; EDTA-free protease inhibitor cocktail; Roche Diagnostics 1873580) was added in order to reach a final protein concentration of 10 mg/mL total protein. The diluted cell lysate was stored on ice. Mixed Molt4/Ramos lysate was prepared by combining one volume of Molt4 lysate and two volumes of Ramos lysate (ratio 1:2).
To a 96 well filter plate (Multiscreen HTS, BV Filter Plates, Millipore #MSBVN1250) were added per well: 100 μL affinity matrix (3% beads slurry), 3 μL of compound solution, and 50 μL of diluted lysate. Plates were sealed and incubated for 3 hours in a cold room on a plate shaker (Heidolph tiramax 1000) at 750 rpm. Afterwards the plate was washed 3 times with 230 μL washing buffer (1×DP 0.4% NP40). The filter plate was placed on top of a collection 1 plate (Greiner bio-one, PP-microplate 96 well V-shape, 65120) and the beads were then eluted with 20 μL of sample buffer (100 mM Tris, pH 7.4, 4% SDS, 0.00025% bromophenol blue, 20% glycerol, 50 mM DTT). The eluate was frozen quickly at −80° C. and stored at −20° C.
The kinases in the eluates were detected and quantified by spotting on nitrocellulose membranes and using a first antibody directed against the kinase of interest and a fluorescently labelled secondary antibody (anti-rabbit IRDye™ antibody 800 (Licor, #926-32211). The Odyssey Infrared Imaging system from LI-COR Biosciences (Lincoln, Nebr., USA) was operated according to instructions provided by the manufacturer (Schutz-Geschwendener et al, 2004. Quantitative, two-color Western blot detection with infrared fluorescence. Published May 2004 by LI-COR Biosciences, www.licor.com).
After spotting of the eluates the nitrocellulose membrane (BioTrace NT; PALL, #BTNT30R) was first blocked by incubation with Odyssey blocking buffer (LICOR, 927-40000) for 1 hour at room temperature. Blocked membranes were then incubated for 16 hours at the temperature shown in Table 5 with the first antibody diluted in Odyssey blocking buffer (LICOR #927-40000). Afterwards the membrane was washed twice for 10 minutes with PBS buffer containing 0.2% Tween 20 at room temperature. […]

Molecules are shown by their SMILES. Bounds are passed on as bounds.

T1 sequence (Q96GD4 whole entry): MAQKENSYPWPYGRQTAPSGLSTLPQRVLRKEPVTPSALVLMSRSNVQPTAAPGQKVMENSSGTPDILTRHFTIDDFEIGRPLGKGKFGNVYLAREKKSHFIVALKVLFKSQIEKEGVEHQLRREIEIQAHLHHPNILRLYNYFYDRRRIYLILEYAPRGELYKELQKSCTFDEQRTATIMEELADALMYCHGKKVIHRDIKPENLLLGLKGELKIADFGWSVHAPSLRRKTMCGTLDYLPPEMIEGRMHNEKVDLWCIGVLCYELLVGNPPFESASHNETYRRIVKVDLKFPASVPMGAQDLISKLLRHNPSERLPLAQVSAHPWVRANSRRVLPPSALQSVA

Broadly, the IC50 is the concentration needed to halve the response being measured. Take `Cn1cc(Nc2ncc3cnn(Cc4cccc(N5CCNCC5)c4)c3n2)cn1` [Example 22, N-(1-Methyl-1H-pyrazol-4-yl)-1-(3-(piperazin-1-yl)benzyl)-1H-pyrazolo[3,4-d]pyrimidin-6-amine]: the “JAK3/AurB Fold Selectivity” value is listed as above 50 Fold and the concentration for half-maximal inhibition (IC50) was 100 to 1000 nM.

On to `FC(F)Cn1cc(Nc2ncc3cnn(Cc4cccc(N5CCOCC5)c4)c3n2)cn1` [Example 23, N-(1-(2,2-Difluoroethyl)-1H-pyrazol-4-yl)-1-(3-morpholinobenzyl)-1H-pyrazolo[3,4-d]pyrimidin-6-amine], for which the “JAK3/AurB Fold Selectivity” value is above 50 Fold and the IC50 lay within 1000 to 10000 nM.

Consider `CNC(=O)CCn1cc(Nc2ncc3cnn(Cc4cccc(N5CCOCC5)c4)c3n2)cn1` [Example 24, N-Methyl-3-(4-((1-(3-morpholinobenzyl)-1H-pyrazolo[3,4-d]pyrimidin-6-yl)amino)-1H-pyrazol-1-yl)propanamide], for which the “JAK3/AurB Fold Selectivity” value was above 50 Fold and the IC50 was 1000 to 10000 nM.

In the case of `Cn1cc(Nc2ncc3cnn(Cc4cccc(N5CCS(=O)(=O)CC5)c4)c3n2)cn1` [Example 25, 4-(3-((6-((1-Methyl-1H-pyrazol-4-yl)amino)-1H-pyrazolo[3,4-d]pyrimidin-1-yl)methyl)phenyl)thiomorpholine 1,1-dioxide], the “JAK3/AurB Fold Selectivity” value was 10-50 Fold and the IC50 is 100 to 1000 nM.

Turning to `Cn1cc(Nc2ncc3cnn(Cc4cccc(N5CC6CCC(C5)O6)c4)c3n2)cn1` [Example 26], the “JAK3/AurB Fold Selectivity” value is 10-50 Fold and the IC50 lay within 1000 to 10000 nM.

In the case of `Cn1cc(Nc2ncc3cnn(Cc4cccc(N5CCOCC5=O)c4)c3n2)cn1` [Example 27, 4-(3-((6-((1-Methyl-1H-pyrazol-4-yl)amino)-1H-pyrazolo[3,4-d]pyrimidin-1-yl)methyl)phenyl)morpholin-3-one], the “JAK3/AurB Fold Selectivity” value was 10-50 Fold and the half-maximal inhibitory concentration (IC50) is 100 to 1000 nM.

Regarding `CN(C)CCCn1cc(Nc2ncc3cnn(Cc4cccc(N5CCOCC5=O)c4)c3n2)cn1` [Example 28, 4-(3-((6-((1-(3-(Dimethylamino)propyl)-1H-pyrazol-4-yl)amino)-1H-pyrazolo[3,4-d]pyrimidin-1-yl)methyl)phenyl)morpholin-3-one], the “JAK3/AurB Fold Selectivity” value is above 50 Fold and the 50% inhibitory concentration (IC50) was in the range of 100 to 1000 nM.

Take `O=C1COCCN1c1cccc(Cn2ncc3cnc(Nc4cnn(CCO)c4)nc32)c1` [Example 29, 4-(3-((6-((1-(2-Hydroxyethyl)-1H-pyrazol-4-yl)amino)-1H-pyrazolo[3,4-d]pyrimidin-1-yl)methyl)phenyl)morpholin-3-one]: the “JAK3/AurB Fold Selectivity” value is listed as 10-50 Fold and the concentration for half-maximal inhibition (IC50) fell in the range of 100 to 1000 nM.

Regarding `O=C1CCCN1CCCn1cc(Nc2ncc3cnn(Cc4cccc(N5CCOCC5)c4)c3n2)cn1` [Example 30, 1-(3-(4-((1-(3-Morpholinobenzyl)-1H-pyrazolo[3,4-d]pyrimidin-6-yl)amino)-1H-pyrazol-1-yl)propyl)pyrrolidin-2-one], the “JAK3/AurB Fold Selectivity” value is given as above 50 Fold and the half-maximal inhibitory concentration (IC50) was 1000 to 10000 nM.

Regarding `CN(C)CC1(Cn2cc(Nc3ncc4cnn(Cc5cccc(N6CCOCC6)c5)c4n3)cn2)COC1` [Example 31, N-(1-((3-((Dimethylamino)methyl)oxetan-3-yl)methyl)-1H-pyrazol-4-yl)-1-(3-morpholinobenzyl)-1H-pyrazolo[3,4-d]pyrimidin-6-amine], the “JAK3/AurB Fold Selectivity” value is recorded as above 50 Fold and the IC50 is 1000 to 10000 nM.

For `CC(CN(C)C)Cn1cc(Nc2ncc3cnn(Cc4cccc(N5CCOCC5)c4)c3n2)cn1` (stereo not drawn) [Example 32, N-(1-(3-(Dimethylamino)-2-methylpropyl)-1H-pyrazol-4-yl)-1-(3-morpholinobenzyl)-1H-pyrazolo[3,4-d]pyrimidin-6-amine], the “JAK3/AurB Fold Selectivity” value is on record as above 50 Fold and the IC50 is 1000 to 10000 nM.

Regarding `CN(C)CC(O)Cn1cc(Nc2ncc3cnn(Cc4cccc(N5CCOCC5)c4)c3n2)cn1` (stereo not drawn) [Example 33, 1-(Dimethylamino)-3-(4-((1-(3-morpholinobenzyl)-1H-pyrazolo[3,4-d]pyrimidin-6-yl)amino)-1H-pyrazol-1-yl)propan-2-ol], the “JAK3/AurB Fold Selectivity” value is listed as 10-50 Fold and the IC50 fell in the range of 1000 to 10000 nM.

As to `NCCCn1cc(Nc2ncc3cnn(Cc4cccc(N5CCOCC5)c4)c3n2)cn1` [Example 34, N-(1-(3-Aminopropyl)-1H-pyrazol-4-yl)-1-(3-morpholinobenzyl)-1H-pyrazolo[3,4-d]pyrimidin-6-amine], the “JAK3/AurB Fold Selectivity” value is above 50 Fold and the half-maximal inhibitory concentration (IC50) lay in the range of 1000 to 10000 nM.

As to `O=C(CCn1cc(Nc2ncc3cnn(Cc4cccc(N5CCOCC5)c4)c3n2)cn1)NC1CC1` [Example 35, N-Cyclopropyl-3-(4-((1-(3-morpholinobenzyl)-1H-pyrazolo[3,4-d]pyrimidin-6-yl)amino)-1H-pyrazol-1-yl)propanamide], the “JAK3/AurB Fold Selectivity” value is 10-50 Fold and the IC50 was 1000 to 10000 nM.

As to `Cn1cc(Nc2ncc3cnn(Cc4cccc(N5CCNCC5=O)c4)c3n2)cn1` [Example 36, 1-(3-((6-((1-Methyl-1H-pyrazol-4-yl)amino)-1H-pyrazolo[3,4-d]pyrimidin-1-yl)methyl)phenyl)piperazin-2-one], the “JAK3/AurB Fold Selectivity” value is 10-50 Fold and the half-inhibitory concentration (IC50) was 1000 to 10000 nM.

As for `Cn1cc(Nc2ncc3cnn(Cc4cc(N5CCOCC5)cc(F)c4F)c3n2)cn1` [Example 37, 1-(2,3-Difluoro-5-morpholinobenzyl)-N-(1-methyl-1H-pyrazol-4-yl)-1H-pyrazolo[3,4-d]pyrimidin-6-amine], the “JAK3/AurB Fold Selectivity” value is given as above 50 Fold and the half-maximal inhibitory concentration (IC50) lay within 1000 to 10000 nM.

Turning to `Cn1cc(Nc2ncc3cnn(Cc4c(F)ccc(N5CCOCC5)c4F)c3n2)cn1` [Example 38, 1-(2,6-Difluoro-3-morpholinobenzyl)-N-(1-methyl-1H-pyrazol-4-yl)-1H-pyrazolo[3,4-d]pyrimidin-6-amine], the “JAK3/AurB Fold Selectivity” value was 10-50 Fold and the half-inhibitory concentration (IC50) was 100 to 1000 nM.

`OCCn1cc(Nc2ncc3cnn(Cc4cccc(N5CCOCC5)c4F)c3n2)cn1` [Example 39, 2-(4-((1-(2-Fluoro-3-morpholinobenzyl)-1H-pyrazolo[3,4-d]pyrimidin-6-yl)amino)-1H-pyrazol-1-yl)ethanol]: the “JAK3/AurB Fold Selectivity” value is reported as 10-50 Fold and the 50% inhibitory concentration (IC50) is 100 to 1000 nM.

Take `Cn1cc(Nc2ncc3cnn(Cc4cccc(N5CCOCC5=O)c4F)c3n2)cn1` [Example 40, 4-(2-Fluoro-3-((6-((1-methyl-1H-pyrazol-4-yl)amino)-1H-pyrazolo[3,4-d]pyrimidin-1-yl)methyl)phenyl)morpholin-3-one]: the “JAK3/AurB Fold Selectivity” value is given as 10-50 Fold and the IC50 lay within 100 to 1000 nM.

With `CNCC1(Cn2cc(Nc3ncc4cnn(Cc5cccc(N6CCOCC6)c5)c4n3)cn2)COC1` [Example 41, N-(1-((3-((Methylamino)methyl)oxetan-3-yl)methyl)-1H-pyrazol-4-yl)-1-(3-morpholinobenzyl)-1H-pyrazolo[3,4-d]pyrimidin-6-amine], the “JAK3/AurB Fold Selectivity” value is listed as 10-50 Fold and the IC50 lay in the range of 1000 to 10000 nM.

Turning to `Cn1cc(Nc2ncc3cnn(Cc4cccc(N5CC6(COC6)C5)c4)c3n2)cn1` [Example 89, 1-(3-(2-oxa-6-azaspiro[3.3]heptan-6-yl)benzyl)-N-(1-methyl-1H-pyrazol-4-yl)-1H-pyrazolo[3,4-d]pyrimidin-6-amine], the “JAK3/AurB Fold Selectivity” value is given as above 50 Fold and the concentration for half-maximal inhibition (IC50) lay within 1000 to 10000 nM.
